Reference: US20080299598A1, “Detector Comprising a Membrane Perturbation - Detecting Polymer and Functional Membrane Fragments” (priority 2004, published 2008)

Columns and labels:
[1] = tested on: plasma membrane fragments obtained from PC12 cells; experiment: Chromatic response (% CR) of the polydiacetylene construct made with plasma membrane fragments from PC12 cells (detects membrane-permeating drugs); assay type: in vitro ADME; details: analyte up to 11 μM; 25 mM Tris base pH 8; FIG. 2
Experimental: FIG. 2 illustrates the detection of a drug molecule capable of permeating cellular membrane using the construct of the invention (comprising plasma membrane fragments obtained from PC12 cells and polydiacetylene).
(§1) 20 μl of 10,12-tricosadionic acid taken from a stock solution in 60 mM chloroform/ethanol (1:1) are dried in vacuo up to constant weight. The dried material is then resuspended in 1.950 ml deionized water and subjected to probe sonication at 70° C. for 3 minutes. The solution thus obtained is then cooled for 15 minutes, and 50 μl of plasma membrane from PC12 cells (prepared as described hereinabove) is added thereto. The vesicle suspension obtained thereby is then subject to another round of sonication for 10 seconds, left to cool to room temperature and than stored at 4° C. overnight.
Aqueous stock solutions containing 5.2 mg/ml propranolol and 1.5 mg/ml amoxicillin were prepared. […]
FIG. 2 depicts the chromatic response factor calculated for various Propranol- or Amoxicillin-containing samples on the basis of the UV-vis spectra measured, versus the concentration of the analyte (that is, either Propranol or Amoxicillin) in said samples. […]

muscarinic receptor = experiment: Chromatic response (% CR) of the polydiacetylene construct made with crude membrane fragments from PC12 cells overexpressing the muscarinic receptor; assay type: binding; details: atropine up to 20 μM; 25 mM Tris base pH 8; compared with construct from regular PC12 crude membrane; FIG. 1
Experimental: PC12 cells overexpressing the muscarinic receptors were prepared using conventional transfection techniques, as described, for example, by Sadot et al. [Israel Journal of neurochemistry (1996 February), 66(2), 877-80.]
as §1, with “crude” for “plasma”, “hereinabove and containing 10 mg/ml protein)” for “hereinabove)”
An aqueous stock solution containing Atropine at a concentration of 0.55 mg/ml was prepared. […]
The UV-vis spectroscopic measurements were carried out three times for each of the samples prepared, using a Jena Analytical Elisa-reader using 96 well microplates. The blue-to-red chromatic transitions were quantified using the chromatic response factor, as defined below:
where Ablue and Ared are the absorbance measured at about 640 nm and about 500 nm, respectively. […]

SMILES	chromatic change (% CR) [1]	chromatic transition (% CR) (muscarinic receptor)
CC1(C)S[C@@H]2[C@H](NC(=O)[C@H](N)c3ccc(O)cc3)C(=O)N2[C@H]1C(=O)O [Amoxicillin]	very low % CR	–
CN1[C@@H]2CC[C@H]1C[C@@H](OC(=O)C(CO)c1ccccc1)C2 (stereo partly drawn) [atropine, Atropine]	–	high % CR
CC(C)NCC(O)COc1cccc2ccccc12 (stereo not drawn) [propranolol]	high % CR	–
